Measurements reported in patent publication US5047397A, “Linear analogs of atrial natriuretic peptides” (California Biotechnology Inc., priority 1988, dated 1991).
Where a SMILES comes first, the peptide text is derived from it. Bridges are numbered along the chain shown (N, C = ends). [ ]: non-standard residue; d: D form. The star is where a group is joined. Hydrocinnamoyl = O=C(CCc1ccccc1)*

Target: T1, specific ANP receptor sites on BASM or BAE cells (Bos taurus, UniProt P10730)
T1 construct: specific receptor sites on BASM or BAE cells; endogenous in cells; host or cells: cultured BASM and BAE cells
T1 sequence (P10730 42-537): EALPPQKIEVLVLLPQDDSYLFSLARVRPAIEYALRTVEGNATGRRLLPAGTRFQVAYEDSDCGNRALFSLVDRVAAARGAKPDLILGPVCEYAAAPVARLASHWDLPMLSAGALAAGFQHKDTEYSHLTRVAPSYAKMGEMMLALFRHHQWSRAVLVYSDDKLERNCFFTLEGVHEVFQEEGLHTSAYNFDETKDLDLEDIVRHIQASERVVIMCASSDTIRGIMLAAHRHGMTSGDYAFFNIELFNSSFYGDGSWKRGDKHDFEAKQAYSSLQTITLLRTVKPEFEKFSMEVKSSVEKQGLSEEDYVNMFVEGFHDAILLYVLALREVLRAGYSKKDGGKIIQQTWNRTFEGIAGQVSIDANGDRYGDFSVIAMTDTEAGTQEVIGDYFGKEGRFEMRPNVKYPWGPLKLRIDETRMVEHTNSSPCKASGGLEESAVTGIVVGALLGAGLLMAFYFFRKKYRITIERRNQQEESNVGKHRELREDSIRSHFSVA
Test: Competitive displacement receptor binding of (125I)-rANP(126-150) on cultured cells
Design: species or system bovine
Settings: for Ki(app): concentration of unlabeled peptide displacing 50% of maximal binding of 0.5 nM (125I)-rANP(126-150), BASM or BAE cells
Description: Analogous "competitive displacement" receptor binding assays are considered commonplace in the art for examining specific ligand-receptor interactions.
Assuming these ANP analogs act at one or more ANP receptor sites, then increased receptor affinity should reflect increased biological potency.

Compound | Ki (Table 2A, unit not given, in nM) | Ki(app) [nM]
CC[C@H](C)[C@@H]1NC(=O)[C@H](CCCNC(=N)N)NC(=O)[C@H](CC(=O)O)NC(=O)[C@H]([C@@H](C)CC)NC(=O)[C@H](CCCNC(=N)N)NC(=O)CNC(=O)CNC(=O)[C@H](Cc2ccccc2)NC(=O)[C@@H](NC(=O)[C@H](CO)NC(=O)[C@H](CO)NC(=O)[C@@H](N)CCCNC(=N)N)CSSC[C@@H](C(=O)N[C@@H](CC(N)=O)C(=O)N[C@@H](CO)C(=O)N[C@@H](Cc2ccccc2)C(=O)N[C@@H](CCCNC(=N)N)C(=O)N[C@@H](Cc2ccc(O)cc2)C(=O)O)NC(=O)CNC1=O [AP21] (H-RSSCFGGRIDRIGCNSFRY-OH; disulfide 4-14) | 15.15 | –
CC[C@H](C)[C@@H]1NC(=O)[C@H](CCCNC(=N)N)NC(=O)[C@H](CC(=O)O)NC(=O)[C@H]([C@@H](C)CC)NC(=O)[C@H](CCCNC(=N)N)NC(=O)CNC(=O)CNC(=O)[C@@H](NC(=O)[C@H](CO)NC(=O)[C@H](CO)NC(=O)[C@@H](N)CCCNC(=N)N)CSSC[C@@H](C(=O)N[C@@H](CC(N)=O)C(=O)N[C@@H](CO)C(=O)N[C@@H](Cc2ccccc2)C(=O)N[C@@H](CCCNC(=N)N)C(=O)N[C@@H](Cc2ccc(O)cc2)C(=O)O)NC(=O)CNC(=O)[C@H](CC(C)C)NC(=O)CNC(=O)[C@H](CO)NC(=O)[C@H](CCC(N)=O)NC(=O)[C@H](C)NC(=O)CNC1=O [AP23, R--S--S--C--G--G--R--I--D--R--I--G--A--Q--S--G--L--G--C--N--S--F--R--Y] (H-RSSCGGRIDRIGAQSGLGCNSFRY-OH; disulfide 4-19) | – | 7.76
CC[C@H](C)[C@@H]1NC(=O)[C@H](CCCNC(=N)N)NC(=O)[C@H](CC(=O)O)NC(=O)[C@H]([C@@H](C)CC)NC(=O)[C@H](CCCNC(=N)N)NC(=O)CNC(=O)[C@@H](NC(=O)[C@H](CO)NC(=O)[C@H](CO)NC(=O)[C@@H](N)CCCNC(=N)N)CSSC[C@@H](C(=O)N[C@@H](CC(N)=O)C(=O)N[C@@H](CO)C(=O)N[C@@H](Cc2ccccc2)C(=O)N[C@@H](CCCNC(=N)N)C(=O)N[C@@H](Cc2ccc(O)cc2)C(=O)O)NC(=O)CNC(=O)[C@H](CC(C)C)NC(=O)CNC(=O)[C@H](CO)NC(=O)[C@H](CCC(N)=O)NC(=O)[C@H](C)NC(=O)CNC1=O [AP24, R--S--S--C--G--R--I--D--R--I--G--A--Q--S--G--L--G--C--N--S--F--R--Y] (H-RSSCGRIDRIGAQSGLGCNSFRY-OH; disulfide 4-18) | – | 25.2
CC[C@H](C)[C@H](NC(=O)[C@H](CCCNC(=N)N)NC(=O)[C@H](CC(=O)O)NC(=O)[C@@H](NC(=O)[C@H](CCCNC(=N)N)NC(=O)CNC(=O)CNC(=O)CCc1ccccc1)[C@@H](C)CC)C(=O)NCC(=O)N[C@@H](C)C(N)=O [AP130, (desNH2 --F)--G--G--R--I--D--R--I--G--A--NH2] (Hydrocinnamoyl-GGRIDRIGA-NH2) | – | 8.8
CC[C@H](C)[C@H](NC(=O)[C@H](CCCNC(=N)N)NC(=O)[C@H](CC(=O)O)NC(=O)[C@@H](NC(=O)[C@H](CCCNC(=N)N)NC(=O)CNC(=O)CNC(=O)CCc1ccccc1)[C@@H](C)CC)C(N)=O [AP132, (desNH2 --F)--G--G--R--I--D--R--I--NH2] (Hydrocinnamoyl-GGRIDRI-NH2) | – | 10.15
CC[C@H](C)[C@H](NC(=O)[C@H](CCCNC(=N)N)NC(=O)[C@H](CC(=O)O)NC(=O)[C@@H](NC(=O)[C@H](CCCNC(=N)N)NC(=O)CNC(=O)[C@@H](C)NC(=O)[C@H](Cc1ccccc1)NC(=O)[C@H](C)N)[C@@H](C)CC)C(=O)NCC(=O)N[C@@H](C)C(N)=O [AP133, A--F--A^ --G--R--I--D--R--I--G--A--NH2] (H-AF[dA]GRIDRIGA-NH2) | – | 2.93
CC[C@H](C)[C@H](NC(=O)[C@H](CCCNC(=N)N)NC(=O)[C@H](CC(=O)O)NC(=O)[C@@H](NC(=O)[C@H](CCCNC(=N)N)NC(=O)CNC(=O)CNC(=O)[C@@H](Cc1ccccc1)NC(=O)[C@H](C)N)[C@@H](C)CC)C(=O)NCC(=O)N[C@@H](C)C(N)=O [AP151, A--F^ --G--G--R--I--D--R--I--G--A--NH2] (H-A[dF]GGRIDRIGA-NH2) | – | 39.6
